From patent US8455484B2, “Selected inhibitors of protein tyrosine kinase activity” (MethylGene Inc., priority 2010, dated 2013)

Key:
VEGFR2 (KDR) = target: T1, VEGFR2 (KDR) (Homo sapiens, UniProt P35968); assay: In vitro receptor tyrosine kinase assay (VEGF receptor KDR), DELFIA; format: biochemical; settings: recombinant GST-VEGFR2 catalytic domain, ATP 0.6 uM, enzyme 5 nM; read-out: VEGFR IC50
T1 construct: made in house; host or cells: Sf9 cells (Spodoptera frugiperda), baculovirus
From the text: This test measures the ability of compounds to inhibit the enzymatic activity of recombinant human VEGF receptor enzymatic activity.
A 1.6-kb cDNA corresponding to the catalytic domain of VEGFR2 (KDR) (Genbank accession number AF035121 amino acid 806 to 1356) is cloned into the Pst I site of the pDEST20 Gateway vector (Invitrogen) for the production of a GST-tagged version of that enzyme. This constuct is used to generate recombinant baculovirus using the Bac-to-Bac™ system according to the manucfacturer's instructions (Invitrogen).
The GST-VEGFR2806-1356 protein is expressed in Sf9 cells (Spodoptera frugiperda) upon infection with recombinant baculovirus construct. Briefly, Sf9 cells grown in suspension and maintained in serum-free medium (Sf900 II supplemented with gentamycin) at a cell density of about 2×10^6 cells/ml are infected with the above-mentioned viruses at a multiplicity of infection (MOI) of 0.1 during 72 hours at 27° C. with agitation at 120 rpm on a rotary shaker. Infected cells are harvested by centrifugation at 398 g for 15 min. Cell pellets are frozen at −80° C. until purification is performed.
All steps described in cell extraction and purification are performed at 4° C. Frozen Sf9 cell pellets infected with the GST-VEGFR2806-1356 recombinant baculovirus are thawed and gently resuspended in Buffer A (PBS pH 7.3 supplemented with 1 μg/ml pepstatin, 2 μg/ml Aprotinin and leupeptin, 50 μg/ml PMSF, 50 μg/ml TLCK and 10 μM E64 and 0.5 mM DTT) using 3 ml of buffer per gram of cells. Suspension is Dounce homogenized and 1% Triton X-100 is added to the homogenate after which it is centrifuged at 22500 g, 30 min., 4° C. The supernatant (cell extract) is used as starting material for purification of GST-VEGFR2806-1356.
The supernatant is loaded onto a GST-agarose column (Sigma) equilibrated with PBS pH 7.3. Following a four column volume (CV) wash with PBS pH 7.3+1% Triton X-100 and 4 CV wash with buffer B (50 mM Tris pH 8.0, 20% glycerol and 100 mM NaCl), bound proteins are step eluted with 5 CV of buffer B supplemented with 5 mM DTT and 15 mM glutathion. GST-VEGFR2806-1356 enriched fractions from this chromatography step are pooled based on U.V. trace i.e. fractions with high O.D.280. Final GST-VEGFR2806-1356 protein preparations concentrations are about 0.7 mg/ml with purity approximating 70%. Purified GST-VEGFR2806-1356 protein stocks are aliquoted and frozen at −80° C. prior to use in enzymatic assay.
Inhibition of VEGFR/KDR is measured in a DELFIA™ assay (Perkin Elmer). The substrate poly(Glu4, Tyr) is immobilized onto black high-binding polystyrene 96-well plates. The coated plates are washed and stored at 4° C. During the assay, the enzyme is pre-incubated with inhibitor and Mg-ATP on ice in polypropylene 96-well plates for 4 minutes, and then transferred to the coated plates. The subsequent kinase reaction takes place at 30° C. for 10-30 minutes. ATP concentrations in the assay are 0.6 uM for VEGFR/KDR (2× the Km). Enzyme concentration is 5 nM. After incubation, the kinase reactions are quenched with EDTA and the plates are washed. Phosphorylated product is detected by incubation with Europium-labeled anti-phosphotyrosine MoAb. After washing the plates, bound MoAb is detected by time-resolved fluorescence in a Gemini SpectraMax reader (Molecular Devices). Compounds are evaluated over a range of concentrations, and IC50 values (concentration of compounds giving 50% inhibition of enzymatic activity) are determined.

CNV progression = assay: In vivo choroidal neovascularization (CNV) model; set-up: species or system Brown-Norway rats; settings: injection into right eye on Day 3, CNV area on Day 10, vs vehicle-treated group
From the text: This test measures the capacity of compounds to inhibit CNV progression. CNV is the main cause of severe vision loss in patients suffering from age-related macular degeneration (AMD).
Male Brown-Norway rats (Japan Clea Co., Ltd.) were used in these studies.
Rats were anesthetized by intraperitoneal injection of pentobarbital, and the right pupil was dilated with 0.5% tropicamide and 0.5% phenylephrine hydrochloride. The right eye received 6 laser burns between retinal vessels using a slit lamp delivery system of Green laser Photocoagulator (Nidex Inc., Japan), and microscope slide glass with Heaton™ (AMO Inc) used as a contact lens. The laser power was 100 or 200 mW for 0.1 second and spot diameter was 100 μm. At the time of laser burn, bubble production was observed, which is an indication of rupture of Bruch's membrane which is important for CNV generation.
Rats were divided into the groups based on their body weight using SAS software (SAS institute Japan, R8.1) after laser irradiation (Day 0). After animals were anesthetized, and the right pupil dilated (as above mentioned), the right eye of the animal received the compound or vehicle by an injection (10 μL/eye) at doses of 10 or 3 nmol/eye on Day 3. The compounds were dissolved or suspended in CBS, PBS, or other adequate vehicles before injection.
On Day 10, the animals were anesthetized with ether, and high molecular weight fluorescein isothiocyanate (FITC)-dextran (SIGMA, 2×10^6 MW) was injected via a tail vein (20 mg/rat). About 30 min after FITC-dextran injection, animals were euthanized by ether or carbon dioxide, and the eyes were removed and fixed with 10% formaline neutral buffer solution. After over 1 hour of fixation, RPE-choroid-sclera flat mounts were obtained by removing cornea, lens and retina from the eyeballs. The flat mounts were mounted in 50% glycerol on a microscope slide, and the portion burned by laser was photographed using a fluorescence microscope (Nikon Corporation, excitation filter:465-495 nm, absorption filter:515-555 nm). The CNV area was obtained by measurement of hyper-fluorescence area observed on the photograph using Scion image.
The average CNV area of 6 burns was used as an individual value of CNV area, and the average CNV area of compound treated group was compared with that of the vehicle-treated group.

[1] = tested on: VEGF-induced retinal vascular permeability; assay: VEGF-induced retinal vascular permeability in rabbits; format: in vivo, Dutch rabbits; settings: intravitreal injection, human VEGF165 500 ng, 30 min after fluorescein injection, vs vehicle-treated group
Protocol: This test measured the capacity of compounds to inhibit VEGF-induced retinal vascular permeability. Vascular permeability is the cause of severe vision loss in patients suffering from age-related macular degeneration (AMD). Female Dutch rabbits (˜2 kg; Kitayama LABES CO., LTD, Nagano, Japan) were anesthetized with pentobarbital and topically with 0.4% oxybuprocaine hydrochloride. Test articles or vehicle were injected into vitreous cavity after the dilation of the pupils with 0.5% tropicamide eye drop. Recombinant human VEGF165 (500 ng; Sigma-Aldrich Co., St Louis, Mo.) was injected intravitreously 48 hr prior to the measurement of vitreous fluorescein concentration. Rabbits were anesthetized with pentobarbital and sequentially injected sodium fluorescein (2 mg/kg) via the ear vein. Pupils were dilated with 0.5% tropicamide eye drop, and ocular fluorescein levels were measured using the FM-2 Fluorotron Master (Ocumetrics, Mountain View, Calif.) 30 min after fluorescein injection. The fluorescein concentrations in vitreous were obtained at data points that are 0.25 mm apart from posterior-end along an optical axis. Vitreous fluorescence concentration was considered fluorescein leakage from retinal vasculature. The average fluorescence peaks of the test article treated groups were compared with that of the vehicle-treated group.

T1 sequence (P35968 806-1356): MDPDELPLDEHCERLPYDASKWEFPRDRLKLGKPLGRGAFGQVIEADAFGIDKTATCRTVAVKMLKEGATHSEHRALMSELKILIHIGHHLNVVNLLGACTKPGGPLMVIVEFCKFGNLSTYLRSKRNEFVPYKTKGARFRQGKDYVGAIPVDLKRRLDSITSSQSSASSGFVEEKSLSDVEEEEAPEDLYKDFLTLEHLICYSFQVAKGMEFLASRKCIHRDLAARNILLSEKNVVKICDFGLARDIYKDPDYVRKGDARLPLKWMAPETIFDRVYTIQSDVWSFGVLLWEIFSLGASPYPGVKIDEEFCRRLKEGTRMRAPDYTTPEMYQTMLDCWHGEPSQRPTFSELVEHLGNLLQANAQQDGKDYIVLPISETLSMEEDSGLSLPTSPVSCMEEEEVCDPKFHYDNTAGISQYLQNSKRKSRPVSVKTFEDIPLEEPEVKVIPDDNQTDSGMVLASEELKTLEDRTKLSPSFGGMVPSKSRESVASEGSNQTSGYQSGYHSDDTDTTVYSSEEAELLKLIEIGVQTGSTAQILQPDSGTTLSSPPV

| Compound | IC50 (VEGFR2 (KDR)) | Inhibition of CNV progression (CNV progression; 3 nmol/eye) | Inhibition of CNV progression (CNV progression; 10 nmol/eye) | inhibition of the leakage of fluorescein (vitreous fluorescein concentration) [1] |
| --- | --- | --- | --- | --- |
| 1-((2-(7-(4-Isopropylaminocarbonylamino-2-fluorophenoxy)thieno[3,2-b]pyrid methyl-1H-imidazol-5-yl)methyl)-3-isopropyl-1-(2-methoxyethyl)urea [Compound 192] | 50 to 100 nM | B (≧40% to <60% inhibition) | – | – |
| CCNC(=O)N(CCOC)Cc1ccc(-c2cc3nccc(Oc4ccc(NC(=O)NC5CC5)cc4F)c3s2)nc1 [Compound 2, N-[3-((6-(7-(4-(3-cyclopropylureido)-2-fluorophenoxy)thieno[3,2-b]pyridin-2-yl)pyridin-3-yl)methyl)]-N-(1-ethyl)-N-[3-(2-methoxyethyl)]urea] | < 50 nM | B (≧40% to <60% inhibition) | A (greater than or equal to 60% inhibition) | – |
| COCCN(C=O)Cc1ccc(-c2cc3nccc(Oc4ccc(NC(=O)NC5CC5)cc4F)c3s2)nc1 [Compound 6, N-((6-(7-(4-(3-cyclopropylureido)-2-fluorophenoxy)thieno[3,2-b]pyridin-2-yl)pyridin-3-yl)methyl)-N-(2-methoxyethyl)formamide] | < 50 nM | B (≧40% to <60% inhibition) | A (greater than or equal to 60% inhibition) | – |
| COCCN(Cc1ccc(-c2cc3nccc(Oc4ccc(NC(=O)NC5CC5)c(F)c4F)c3s2)nc1)C(C)=O [Compound 26, N-((6-(7-(4-(3-cyclopropylureido)-2,3-difluorophenoxy)thieno[3,2-b]pyridin-2-yl)-pyridin-3-yl)methyl)-N-(2-methoxyethyl)acetamide] | < 50 nM | B (≧40% to <60% inhibition) | A (greater than or equal to 60% inhibition) | significant inhibition |
| O=C(Nc1ccc(Oc2ccnc3cc(-c4ccc(CN5CCN(C(=O)CO)CC5)cn4)sc23)c(F)c1)NC1CC1 [Compound 74, 1-cyclopropyl-3-(3-fluoro-4-(2-(5-((4-(2-hydroxyacetyl)piperazin-1-yl)methyl)pyridin-2-yl)thieno[3,2-b]pyridin-7-yloxy)phenyl)urea] | < 50 nM | A (greater than or equal to 60% inhibition) | A (greater than or equal to 60% inhibition) | significant inhibition |
| CC(C)[C@H](N)C(=O)OCC(=O)N1CCN(Cc2ccc(-c3cc4nccc(Oc5ccc(NC(=O)NC6CC6)cc5F)c4s3)nc2)CC1 [Compound 80, (S)-2-(4-((6-(7-(4-(3-cyclopropylureido)-2-fluorophenoxy)thieno[3,2-b]pyridin-2-yl)pyridin-3-yl)methyl)piperazin-1-yl)-2-oxoethyl 2-amino-3-methylbutanoate] | < 50 nM | – | – | – |
| CS(=O)(=O)CCNCc1ccc(-c2cc3nccc(Oc4ccc(NC(=O)NC5CC5)cc4F)c3s2)nc1 [Compound 100, 1-cyclopropyl-3-(3-fluoro-4-(2-(5-((2-(methylsulfonyl)ethylamino)methyl)pyridin-2-yl)thieno[3,2-b]pyridin-7-yloxy)phenyl)urea] | < 50 nM | – | – | – |
| CN(CCO)CCn1cc(-c2cc3nccc(Oc4ccc(NC(=O)NC5CC5)cc4F)c3s2)cn1 [Compound 151, 1-cyclopropyl-3-(3-fluoro-4-(2-(1-(2-((2-hydroxyethyl)(methyl)amino)ethyl)-1H-pyrazol-4-yl)thieno[3,2-b]pyridin-7-yloxy)phenyl)urea] | < 50 nM | – | – | – |
| COCCN(Cc1cnc(-c2cc3nccc(Oc4ccc(NC(=O)NC5CC5)cc4F)c3s2)n1C)C(=O)CO [Compound 209, N-((2-(7-(4-(3-cyclopropylureido)-2-fluorophenoxy)thieno[3,2-b]pyridin-2-yl)-1-methyl-1H-imidazol-5-yl)methyl)-2-hydroxy-N-(2-methoxyethyl)acetamide] | < 50 nM | – | – | – |
| CN1CCN(C2CCN(C(=O)c3ccc(-c4cc5nccc(Oc6ccc(NC(=O)NC7CC7)cc6F)c5s4)nc3)CC2)CC1 [Compound 234, 1-Cyclopropyl-3-(3-fluoro-4-(2-(5-(4-(4-methylpiperazin-1-yl)piperidine-1-carbonyl)pyridin-2-yl)thieno[3,2-b]pyridin-7-yloxy)phenyl)urea] | < 50 nM | B (≧40% to <60% inhibition) | – | – |
| O=C(Nc1ccc(Oc2ccnc3cc(-c4cn(CCN5CCOCC5)cn4)sc23)c(F)c1)NC1CC1 [Compound 265] | < 50 nM | – | – | – |
